Assay results as given in PubChem BioAssay AID504472 (NMMLSC, 2011).
Active and inactive are the calls of the source.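 Rule for the calls: active = compound moving the GFP-tagged Gln3 signal into the yeast nucleus, as rapamycin does; inactive = the rest.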

Tested on: S. cerevisiae Gln3-GFP nuclear translocation, microscopy
Test: Gln3-GFP nuclear translocation in yeast, SAR follow-up, yeast TOR pathway modulator project, S. cerevisiae, GFP fusion, microscopy (AID 504472)
Conditions: at 30 µM; hits give high values

Row | SMILES | nuclear translocation (1=yes)
1 | CNc1nc(N)c([N+](=O)[O-])c(Nc2cccc(F)c2)n1 | 0 (inactive)
2 | CNc1nc(N)c([N+](=O)[O-])c(Nc2ccccc2)n1 | 0 (inactive)
3 | CNc1nc(N)c([N+](=O)[O-])c(Nc2cccc(Cl)c2)n1 | 0 (inactive)
4 | CO[C@H]1C[C@@H]2CC[C@@H](C)[C@@](O)(O2)C(=O)C(=O)N2CCCC[C@H]2C(=O)O[C@H]([C@H](C)C[C@@H]2CC[C@@H](O)[C@H](OC)C2)CC(=O)[C@H](C)/C=C(\C)[C@@H](O)[C@@H](OC)C(=O)[C@H](C)C[C@H](C)/C=C/C=C/C=C/1C | 1
